Measured values reported in patent US12161738B2, “Deodorant compositions” (The Procter & Gamble Company, priority 2019, dated 2024).

Key:
[1] = pH of various magnesium salts in a water solution; type: physicochemical; conditions: 12% in water
Method: The pH of magnesium carbonate, partially carbonated magnesium hydroxide, magnesium hydroxide and magnesium oxide were taken in a water solution. The pH values were recorded as follows in Table 4.

[2] = system: Corynebacterium mucofaciens (clinical isolate); experiment: Tier 1 Anaerobic MIC Assay; type: cell-based; conditions: raw material, BHI with 1% Tween 80, 37° C. overnight, O.D. 600
Method: (§1) Tier 1 Anaerobic MIC Assay
(§2) The data in Table 1 above was generated with the following test method. The purpose of this assay is to determine if a compound or formulation has an antimicrobial effect in vitro.
(§3) Procedure: (All procedures performed in anaerobic chamber except where noted)
(§4) Incubator at 37° C.; 20-200 ul 12 channel pipette; 5-50 ul 12 channel pipette; 1250 ul 8 channel Thermo Scientific Matrix pipette; 96 well plate shaker (located in incubator); Beckman Coulter deep well cap mat #267005; Beckman Coulter deep 96 well plates #267007; Falcon 96 well tissue culture plates #353072; Vortexer; Culture tubes/caps Disposable sterile gloves; Sterile petri dishes; Standard microbiological lab equipment (sterile pipettes, syringes, tips, loops, etc.); Glass bottles/flasks for media; Autoclave; Parafilm; Spectrophotometer.
(§5) BHI agar supplemented with 1% Tween 80
(§6) BHI media supplemented with 1% Tween 80
Corynebacterium mucofaciens (clinical isolate)
(§7) Prior to testing streak organisms for isolation on BHI with 1% Tween 80 plates, wrap with parafilm and place in 37° C. incubator. When isolated colonies appear remove one representative colony from each plate and place each in 5 ml of BHI with 1% Tween 80 media. […]
(§8) In row A of a 96 deep well plate pipette 180 ul of sterile BHI with 1% Tween 80 as a negative growth control. […] The next day read the O.D. 600 on a plate reader. […]

[3] = system: Staphylococcus epidermidis (clinical isolate); experiment: Tier 1 Anaerobic MIC Assay; type: cell-based; conditions: raw material, BHI with 1% Tween 80, 37° C. overnight, O.D. 600
Method: as §1, §2, §3, §4, §5, §6
Staphylococcus epidermidis (clinical isolate)
as §7, §8

| SMILES | pH in water 12% Solution [1] | microbial inhibition concentration (MIC), C. mucofaciens [2] [ppm] | microbial inhibition concentration (MIC), S. epidermidis [3] [ppm] | pH in water 12% Solution ([1]; listed as Magnesium oxide) |
| --- | --- | --- | --- | --- |
| [Mg+2].[OH-].[OH-] [Magnesium Hydroxide] | 10 | – | – | – |
| Cc1cc(CC(C)CC(C)(C)C)n(O)c(=O)c1.NCCO (stereo not drawn) [piroctone olamine] | – | <5 | 10 | – |
| O=C([O-])[O-].[Mg+2] [Magnesium Carbonate] | 9.6 | – | – | – |
| [O]=[Mg] [Magnesium Oxide] | 10.8 | – | – | highest pH observed |
